From ChEMBL document CHEMBL5614372, “Advances in dual-targeting inhibitors of HDAC6 for cancer treatment” (Eur J Med Chem, 2024)

Legend:
[1] = molecular target: T1, Protein deacetylase HDAC6 (Homo sapiens, UniProt Q9UBN7); assay: Inhibition of HDAC6 (unknown origin) extracted from baculovirus infected Sf9 insect cells using fluorescent peptide p53 (379 to 382 residues) RHKK(Ac)AMC as substrate by fluorescence based analysis
T1 sequence (Q9UBN7 whole entry): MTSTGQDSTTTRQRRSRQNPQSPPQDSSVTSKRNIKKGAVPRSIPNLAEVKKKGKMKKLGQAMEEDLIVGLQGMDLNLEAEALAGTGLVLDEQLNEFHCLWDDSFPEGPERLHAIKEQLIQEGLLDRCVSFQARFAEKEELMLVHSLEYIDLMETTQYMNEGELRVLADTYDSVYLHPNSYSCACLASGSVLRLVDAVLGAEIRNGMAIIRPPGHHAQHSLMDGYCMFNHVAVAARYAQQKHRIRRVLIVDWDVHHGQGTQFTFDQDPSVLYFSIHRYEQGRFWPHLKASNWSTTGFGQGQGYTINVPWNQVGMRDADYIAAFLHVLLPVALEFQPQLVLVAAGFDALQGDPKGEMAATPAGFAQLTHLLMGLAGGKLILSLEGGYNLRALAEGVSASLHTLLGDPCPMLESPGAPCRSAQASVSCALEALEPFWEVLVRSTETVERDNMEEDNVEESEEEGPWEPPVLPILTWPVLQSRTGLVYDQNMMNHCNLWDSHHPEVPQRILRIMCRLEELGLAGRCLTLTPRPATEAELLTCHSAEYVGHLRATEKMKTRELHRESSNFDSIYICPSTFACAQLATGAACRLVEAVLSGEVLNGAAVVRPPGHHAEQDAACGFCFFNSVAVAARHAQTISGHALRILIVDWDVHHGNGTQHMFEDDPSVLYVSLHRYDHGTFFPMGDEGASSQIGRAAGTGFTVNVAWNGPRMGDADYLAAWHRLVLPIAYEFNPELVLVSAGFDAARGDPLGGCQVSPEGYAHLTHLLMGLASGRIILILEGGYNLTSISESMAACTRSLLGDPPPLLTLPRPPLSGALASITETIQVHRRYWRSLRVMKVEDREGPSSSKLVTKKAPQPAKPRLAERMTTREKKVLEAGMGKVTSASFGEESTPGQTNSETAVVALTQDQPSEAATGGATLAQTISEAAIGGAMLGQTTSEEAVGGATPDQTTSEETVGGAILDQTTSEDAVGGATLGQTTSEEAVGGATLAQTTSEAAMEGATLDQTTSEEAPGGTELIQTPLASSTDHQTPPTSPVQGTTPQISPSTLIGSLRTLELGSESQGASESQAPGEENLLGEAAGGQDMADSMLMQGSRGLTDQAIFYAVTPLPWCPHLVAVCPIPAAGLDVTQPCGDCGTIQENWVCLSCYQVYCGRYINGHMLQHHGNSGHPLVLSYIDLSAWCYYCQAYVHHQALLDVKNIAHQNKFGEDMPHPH

[2] = molecular target: ALK tyrosine kinase receptor (Homo sapiens, UniProt Q9UM73); assay: Inhibition of ALK (unknown origin) using poly[Glu:Tyr] (4:1) as substrate incubated for 2 hrs by [gamma-33P]ATP assay
A549 = assay: Antitumor activity against human A549 cells xenografted in BALB/c nude mouse assessed as inhibition of tumor growth at 20 mg/kg, ip administered once daily for 21 days relative to control; assay type: functional; design: scale not given: the % may be the effect or the level left; conditions: time 21 day
Histone deacetylase 8 = molecular target: T2, Histone deacetylase 8 (Homo sapiens, UniProt Q9BY41); assay: Inhibition of HDAC8 (unknown origin)
T2 sequence (Q9BY41 whole entry): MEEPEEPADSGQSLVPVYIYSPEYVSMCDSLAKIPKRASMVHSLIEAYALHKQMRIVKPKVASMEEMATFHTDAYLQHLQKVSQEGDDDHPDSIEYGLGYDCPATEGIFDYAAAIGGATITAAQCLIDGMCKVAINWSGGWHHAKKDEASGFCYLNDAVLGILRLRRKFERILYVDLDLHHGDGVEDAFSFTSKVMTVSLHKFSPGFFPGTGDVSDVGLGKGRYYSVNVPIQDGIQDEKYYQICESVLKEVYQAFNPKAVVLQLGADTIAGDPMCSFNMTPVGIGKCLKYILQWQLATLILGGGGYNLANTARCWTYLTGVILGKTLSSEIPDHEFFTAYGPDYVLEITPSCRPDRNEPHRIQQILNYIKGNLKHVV

[3] = molecular target: Steroid 17-alpha-hydroxylase/17,20 lyase (Homo sapiens, UniProt P05093); assay: Inhibition of CYP17A1 (unknown origin); assay type: ADME
Chain of Steroid 17-alpha-hydroxylase/17,20 lyase (P05093 whole entry): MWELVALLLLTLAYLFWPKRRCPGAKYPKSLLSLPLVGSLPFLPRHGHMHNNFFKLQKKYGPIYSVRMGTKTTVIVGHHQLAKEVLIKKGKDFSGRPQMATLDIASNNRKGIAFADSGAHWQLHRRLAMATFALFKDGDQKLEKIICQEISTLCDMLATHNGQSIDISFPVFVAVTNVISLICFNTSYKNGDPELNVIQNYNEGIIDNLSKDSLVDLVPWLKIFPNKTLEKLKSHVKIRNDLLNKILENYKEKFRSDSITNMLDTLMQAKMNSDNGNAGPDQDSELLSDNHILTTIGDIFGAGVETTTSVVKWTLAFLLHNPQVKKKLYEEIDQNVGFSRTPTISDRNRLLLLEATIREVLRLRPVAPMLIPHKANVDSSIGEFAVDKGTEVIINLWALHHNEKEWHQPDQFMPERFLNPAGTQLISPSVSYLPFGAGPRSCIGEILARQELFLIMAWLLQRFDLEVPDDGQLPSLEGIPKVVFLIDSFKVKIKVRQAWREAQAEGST

[4] = molecular target: T1, Protein deacetylase HDAC6; assay: Inhibition of HDAC6 (unknown origin)
Histone deacetylase 4 [5] = molecular target: T3, Histone deacetylase 4 (Homo sapiens, UniProt P56524); assay: Inhibition of HDAC4 (unknown origin)
T3 sequence (P56524 whole entry, canonical isoform): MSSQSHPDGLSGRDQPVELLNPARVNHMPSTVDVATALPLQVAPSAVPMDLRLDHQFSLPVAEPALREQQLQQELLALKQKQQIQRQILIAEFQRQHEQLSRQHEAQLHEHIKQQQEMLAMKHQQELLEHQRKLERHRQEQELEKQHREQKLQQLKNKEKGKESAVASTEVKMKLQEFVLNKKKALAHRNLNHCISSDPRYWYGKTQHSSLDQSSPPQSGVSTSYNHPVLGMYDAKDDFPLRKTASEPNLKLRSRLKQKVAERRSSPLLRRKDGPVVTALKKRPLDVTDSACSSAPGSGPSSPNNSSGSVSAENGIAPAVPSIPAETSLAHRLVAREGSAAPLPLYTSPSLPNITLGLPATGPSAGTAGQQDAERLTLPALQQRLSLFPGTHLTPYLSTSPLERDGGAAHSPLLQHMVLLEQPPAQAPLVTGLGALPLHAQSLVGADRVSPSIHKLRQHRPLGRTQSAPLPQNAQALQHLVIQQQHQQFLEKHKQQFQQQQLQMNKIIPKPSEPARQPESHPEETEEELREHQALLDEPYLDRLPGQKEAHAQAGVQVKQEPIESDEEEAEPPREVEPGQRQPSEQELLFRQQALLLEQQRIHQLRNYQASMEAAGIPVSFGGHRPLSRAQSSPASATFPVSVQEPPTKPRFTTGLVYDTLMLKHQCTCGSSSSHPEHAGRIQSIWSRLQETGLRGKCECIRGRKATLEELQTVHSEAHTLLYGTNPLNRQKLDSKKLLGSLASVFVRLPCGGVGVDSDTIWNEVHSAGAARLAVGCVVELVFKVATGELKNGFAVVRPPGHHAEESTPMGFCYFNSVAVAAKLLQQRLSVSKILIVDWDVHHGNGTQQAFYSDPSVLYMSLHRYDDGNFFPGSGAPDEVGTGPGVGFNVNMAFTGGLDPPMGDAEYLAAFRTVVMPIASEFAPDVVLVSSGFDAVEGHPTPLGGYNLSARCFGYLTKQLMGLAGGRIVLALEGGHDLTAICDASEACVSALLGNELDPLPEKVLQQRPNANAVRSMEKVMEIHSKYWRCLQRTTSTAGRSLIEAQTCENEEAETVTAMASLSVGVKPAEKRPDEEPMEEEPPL

[6] = molecular target: Phosphatidylinositol 4,5-bisphosphate 3-kinase catalytic subunit delta isoform (Homo sapiens, UniProt O00329); assay: Inhibition of PI3Kdelta (unknown origin)
[7] = molecular target: Phosphatidylinositol 4,5-bisphosphate 3-kinase catalytic subunit gamma isoform (Homo sapiens, UniProt P48736); assay: Inhibition of PI3Kgamma (unknown origin)
Histone deacetylase 1 = Histone deacetylase 1 (Homo sapiens, UniProt Q13547); assay: Inhibition of HDAC1 (unknown origin)
Chain of Histone deacetylase 1 (Q13547 whole entry): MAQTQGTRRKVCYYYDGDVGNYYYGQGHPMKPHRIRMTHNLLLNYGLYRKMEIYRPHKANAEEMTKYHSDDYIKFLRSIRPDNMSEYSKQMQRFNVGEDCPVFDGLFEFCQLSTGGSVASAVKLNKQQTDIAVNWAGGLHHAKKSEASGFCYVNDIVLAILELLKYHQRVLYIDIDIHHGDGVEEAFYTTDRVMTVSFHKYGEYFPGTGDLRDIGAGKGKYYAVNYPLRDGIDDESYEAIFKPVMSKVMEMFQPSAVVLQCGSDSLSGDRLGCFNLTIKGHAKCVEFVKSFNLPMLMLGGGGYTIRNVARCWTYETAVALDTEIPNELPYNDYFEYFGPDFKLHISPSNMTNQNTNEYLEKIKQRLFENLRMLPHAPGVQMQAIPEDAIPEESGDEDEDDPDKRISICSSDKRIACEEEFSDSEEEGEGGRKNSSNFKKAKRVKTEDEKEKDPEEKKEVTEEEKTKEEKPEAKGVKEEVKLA

Histone deacetylase 11 = Histone deacetylase 11 (Homo sapiens, UniProt Q96DB2); assay: Inhibition of HDAC11 (unknown origin)
[8] = molecular target: Phosphatidylinositol 4,5-bisphosphate 3-kinase catalytic subunit beta isoform (Homo sapiens, UniProt P42338); assay: Inhibition of PI3Kbeta (unknown origin)
[9] = Inhibition of HSP90 (unknown origin) by fluorescence polarization assay; design: species or system Homo sapiens
[10] = molecular target: High affinity cGMP-specific 3',5'-cyclic phosphodiesterase 9A (Homo sapiens, UniProt O76083); assay: Inhibition of PDE9A (unknown origin)
Histone deacetylase 2 = Histone deacetylase 2 (Homo sapiens, UniProt Q92769); assay: Inhibition of HDAC2 (unknown origin)
Chain of Histone deacetylase 2 (Q92769 whole entry): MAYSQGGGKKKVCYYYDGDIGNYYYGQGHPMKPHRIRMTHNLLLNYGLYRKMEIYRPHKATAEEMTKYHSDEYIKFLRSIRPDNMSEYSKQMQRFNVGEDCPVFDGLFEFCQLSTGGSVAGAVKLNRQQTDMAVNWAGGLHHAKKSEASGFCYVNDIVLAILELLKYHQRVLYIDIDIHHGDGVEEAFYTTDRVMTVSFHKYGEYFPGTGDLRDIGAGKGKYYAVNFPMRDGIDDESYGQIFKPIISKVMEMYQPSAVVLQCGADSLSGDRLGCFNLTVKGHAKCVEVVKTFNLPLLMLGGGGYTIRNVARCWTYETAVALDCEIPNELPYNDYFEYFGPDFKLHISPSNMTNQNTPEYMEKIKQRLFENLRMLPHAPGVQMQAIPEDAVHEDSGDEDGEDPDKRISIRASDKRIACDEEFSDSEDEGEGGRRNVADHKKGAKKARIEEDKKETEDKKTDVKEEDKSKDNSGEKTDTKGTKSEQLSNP

[11] = molecular target: cGMP-specific 3',5'-cyclic phosphodiesterase (Homo sapiens, UniProt O76074); assay: Inhibition of PDE5A (unknown origin)
[12] = molecular target: Estrogen receptor (Homo sapiens) (UniProt P03372); assay: Binding affinity to ERalpha (unknown origin) assessed as relative binding affinity by fluorescence polarization assay relative to control
[13] = molecular target: Estrogen receptor beta (Homo sapiens) (UniProt Q92731); assay: Binding affinity to ERbeta (unknown origin) assessed as relative binding affinity by fluorescence polarization assay relative to control
Histone deacetylase 7 [14] = molecular target: T4, Histone deacetylase 7 (Homo sapiens, UniProt Q8WUI4); assay: Inhibition of HDAC7 (unknown origin)
T4 sequence (Q8WUI4 whole entry): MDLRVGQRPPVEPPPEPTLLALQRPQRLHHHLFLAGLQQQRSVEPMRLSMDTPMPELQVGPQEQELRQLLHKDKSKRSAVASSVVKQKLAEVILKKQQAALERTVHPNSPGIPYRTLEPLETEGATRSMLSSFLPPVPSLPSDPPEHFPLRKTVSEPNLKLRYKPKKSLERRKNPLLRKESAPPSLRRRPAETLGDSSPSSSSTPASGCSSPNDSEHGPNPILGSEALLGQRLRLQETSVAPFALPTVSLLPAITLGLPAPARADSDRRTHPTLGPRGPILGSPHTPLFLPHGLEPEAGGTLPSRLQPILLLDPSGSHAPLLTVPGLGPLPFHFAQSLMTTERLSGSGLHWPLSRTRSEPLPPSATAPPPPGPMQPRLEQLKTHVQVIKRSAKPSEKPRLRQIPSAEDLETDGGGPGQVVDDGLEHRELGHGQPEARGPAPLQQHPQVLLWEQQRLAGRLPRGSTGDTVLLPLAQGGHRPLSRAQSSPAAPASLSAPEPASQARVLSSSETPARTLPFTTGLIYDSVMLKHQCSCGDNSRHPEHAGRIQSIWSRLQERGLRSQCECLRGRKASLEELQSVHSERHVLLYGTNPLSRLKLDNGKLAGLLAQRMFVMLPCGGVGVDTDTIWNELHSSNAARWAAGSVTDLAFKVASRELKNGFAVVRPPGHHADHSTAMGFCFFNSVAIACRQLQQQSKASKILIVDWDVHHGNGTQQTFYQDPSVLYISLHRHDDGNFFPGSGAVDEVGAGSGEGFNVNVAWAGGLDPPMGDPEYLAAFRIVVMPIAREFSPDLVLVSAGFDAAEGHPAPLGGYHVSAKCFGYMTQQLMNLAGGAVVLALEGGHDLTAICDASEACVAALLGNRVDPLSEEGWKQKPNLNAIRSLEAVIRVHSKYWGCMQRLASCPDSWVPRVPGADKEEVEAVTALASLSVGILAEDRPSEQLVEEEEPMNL

[15] = molecular target: Glutamate [NMDA] receptor (Homo sapiens) (UniProt Q05586+Q12879+Q13224+O15399+O60391+Q14957+Q8TCU5); assay: Inhibition of NMDA receptor (unknown origin) at 10 uM relative to control; assay type: protein-complex assay
Histone deacetylase 9 = Histone deacetylase 9 (Homo sapiens, UniProt Q9UKV0); assay: Inhibition of HDAC9 (unknown origin)
[16] = molecular target: Glutamate [NMDA] receptor; assay: Binding affinity to NMDA receptor (unknown origin) assessed as inhibition constant; assay type: protein-complex assay, Homo sapiens
Histone deacetylase 3 [17] = molecular target: T5, Histone deacetylase 3 (Homo sapiens, UniProt O15379); assay: Inhibition of HDAC3 (unknown origin)
T5 sequence (O15379 whole entry): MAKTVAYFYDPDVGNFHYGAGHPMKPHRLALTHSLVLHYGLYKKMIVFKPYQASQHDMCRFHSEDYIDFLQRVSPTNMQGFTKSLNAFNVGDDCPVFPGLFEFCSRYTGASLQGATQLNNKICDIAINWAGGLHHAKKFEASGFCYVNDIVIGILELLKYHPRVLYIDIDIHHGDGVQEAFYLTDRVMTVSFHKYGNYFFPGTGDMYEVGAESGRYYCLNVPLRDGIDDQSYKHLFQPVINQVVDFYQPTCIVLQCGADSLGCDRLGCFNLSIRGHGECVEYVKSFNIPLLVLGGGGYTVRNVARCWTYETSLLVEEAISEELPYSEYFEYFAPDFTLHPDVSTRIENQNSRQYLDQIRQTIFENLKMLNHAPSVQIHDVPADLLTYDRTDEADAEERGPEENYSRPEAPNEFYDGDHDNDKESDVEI

Histone deacetylase 5 [18] = molecular target: T6, Histone deacetylase 5 (Homo sapiens, UniProt Q9UQL6); assay: Inhibition of HDAC5 (unknown origin)
T6 sequence (Q9UQL6 whole entry): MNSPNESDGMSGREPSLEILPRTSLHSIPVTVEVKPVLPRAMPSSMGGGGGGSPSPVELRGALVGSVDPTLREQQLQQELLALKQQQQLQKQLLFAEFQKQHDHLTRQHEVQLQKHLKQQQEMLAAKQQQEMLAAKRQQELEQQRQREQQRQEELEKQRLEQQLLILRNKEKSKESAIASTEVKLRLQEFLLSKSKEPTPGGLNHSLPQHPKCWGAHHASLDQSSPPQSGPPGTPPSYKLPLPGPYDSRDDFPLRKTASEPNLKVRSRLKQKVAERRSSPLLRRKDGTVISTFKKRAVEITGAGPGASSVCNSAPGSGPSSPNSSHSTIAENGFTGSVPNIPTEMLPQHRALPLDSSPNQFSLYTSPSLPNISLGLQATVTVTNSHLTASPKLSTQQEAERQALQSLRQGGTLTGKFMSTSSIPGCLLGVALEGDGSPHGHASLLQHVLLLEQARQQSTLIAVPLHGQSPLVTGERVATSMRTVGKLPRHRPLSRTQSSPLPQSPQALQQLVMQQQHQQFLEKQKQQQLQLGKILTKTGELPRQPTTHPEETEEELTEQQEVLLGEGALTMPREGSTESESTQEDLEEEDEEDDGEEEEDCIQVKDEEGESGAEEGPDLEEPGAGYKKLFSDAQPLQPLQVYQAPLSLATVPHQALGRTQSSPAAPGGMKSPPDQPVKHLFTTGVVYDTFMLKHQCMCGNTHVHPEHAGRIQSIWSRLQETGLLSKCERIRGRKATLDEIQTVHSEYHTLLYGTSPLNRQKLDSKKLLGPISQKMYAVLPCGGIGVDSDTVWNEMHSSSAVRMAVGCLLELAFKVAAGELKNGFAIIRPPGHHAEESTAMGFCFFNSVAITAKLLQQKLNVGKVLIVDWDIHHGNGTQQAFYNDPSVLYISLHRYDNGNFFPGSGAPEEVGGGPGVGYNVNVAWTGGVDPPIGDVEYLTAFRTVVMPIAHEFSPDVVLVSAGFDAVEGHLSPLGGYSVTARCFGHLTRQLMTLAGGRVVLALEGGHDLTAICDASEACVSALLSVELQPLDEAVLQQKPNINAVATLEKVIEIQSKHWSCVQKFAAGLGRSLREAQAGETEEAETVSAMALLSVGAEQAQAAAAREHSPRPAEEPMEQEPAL

Histone deacetylase 3 [19] = molecular target: T5, Histone deacetylase 3; assay: Inhibition of human recombinant HDAC3 using fluorogenic HDAC substrate incubated for 20 mins by fluorescence based assay
Histone deacetylase 4 [20] = molecular target: T3, Histone deacetylase 4; assay: Inhibition of human recombinant HDAC4 using fluorogenic HDAC substrate incubated for 20 mins by fluorescence based assay
Histone deacetylase 5 [21] = molecular target: T6, Histone deacetylase 5; assay: Inhibition of human recombinant HDAC5 using fluorogenic HDAC substrate incubated for 20 mins by fluorescence based assay
[22] = molecular target: Serine/threonine-protein kinase B-raf (Homo sapiens, UniProt P15056); assay: Inhibition of wild type B-RAF (unknown origin)
Histone deacetylase 7 [23] = molecular target: T4, Histone deacetylase 7; assay: Inhibition of human recombinant HDAC7 using fluorogenic HDAC substrate incubated for 20 mins by fluorescence based assay
[24] = molecular target: T1, Protein deacetylase HDAC6; assay: Inhibition of human recombinant HDAC6 using fluorogenic HDAC substrate incubated for 20 mins by fluorescence based assay
[25] = molecular target: Serine/threonine-protein kinase PAK 1 (Homo sapiens, UniProt Q13153); assay: Inhibition of PAK1 (unknown origin)
[26] = molecular target: Serine/threonine-protein kinase PAK 3 (Homo sapiens, UniProt O75914); assay: Inhibition of PAK3 (unknown origin)
[27] = molecular target: Serine/threonine-protein kinase PAK 2 (Homo sapiens, UniProt Q13177); assay: Inhibition of PAK2 (unknown origin)

CC(C)NC(=O)[C@H]1CC[C@@H](n2/c(=N/C(=O)c3ccccc3)[nH]c3cc(/C=C/C(=O)NO)ccc32)CC1
IC50 [1]: 1030 nM
IC50 [2]: 16 nM
Activity (A549): 80%

C[C@]12CC[C@H](OC(=O)CCCCCC(=O)NO)CC1=CCC1C2CC[C@]2(C)C(c3cccnc3)=CCC12 (some centres not stated)
IC50 (Histone deacetylase 8): > 10000 nM
IC50 [3]: 284 nM
IC50 [4]: 600 nM

O=C(NO)c1ccc(/C=N/NC(=O)c2cc(N3CCOCC3)nc(-c3cccc(O)c3)n2)cc1
IC50 (Histone deacetylase 4 [5]): > 3000 nM
IC50 [6]: 72.4 nM
IC50 (Histone deacetylase 8): 67.6 nM
IC50 [7]: 1300 nM
IC50 (Histone deacetylase 1): > 3000 nM
IC50 (Histone deacetylase 11): > 3000 nM
IC50 [8]: 72.8 nM

CC(C)c1cc(C(=O)N(C)Cc2ccc(C(=O)NO)cc2)c(O)cc1O
IC50 [9]: 61 nM

C[C@@H]1CN(Cc2ccc(C(=O)NO)cc2)C[C@H]1c1nc2c(cnn2C2CCOCC2)c(=O)[nH]1
IC50 [10]: 107 nM
IC50 (Histone deacetylase 2): 3530 nM
IC50 [11]: > 10000 nM
IC50 (Histone deacetylase 1): 593 nM
IC50 [4]: 40 nM

N#CC(C#N)=C1C=C(/C=C/c2ccc(O)c(NC(=O)CCCCCCC(=O)NO)c2)Oc2ccccc21
RBA [12]: 0.005%
RBA [13]: 0.25%

CC12CC3CC(C)(C1)CC(NC(=O)/C=C/c1ccc(C(=O)NO)cc1)(C3)C2
IC50 (Histone deacetylase 7 [14]): > 10000 nM
IC50 (Histone deacetylase 4 [5]): > 10000 nM
inhibition [15]: 64.4%
IC50 (Histone deacetylase 8): 620 nM
IC50 (Histone deacetylase 9): > 10000 nM
Ki [16]: 560 nM
IC50 (Histone deacetylase 3 [17]): 2210 nM
IC50 (Histone deacetylase 5 [18]): > 10000 nM
IC50 (Histone deacetylase 2): 8000 nM
IC50 (Histone deacetylase 1): 2670 nM

CC(C)(C)c1nc(-c2cccc(NS(=O)(=O)c3c(F)cccc3F)c2F)c(-c2ccnc(NCCCCCCC(=O)NO)n2)s1
IC50 (Histone deacetylase 3 [19]): 930 nM
IC50 (Histone deacetylase 4 [20]): > 100000 nM
IC50 (Histone deacetylase 5 [21]): > 52800 nM
IC50 [22]: 4 nM
IC50 (Histone deacetylase 7 [23]): 3000 nM
IC50 [24]: 50 nM

CCCCN(Cc1ccc(C(=O)NO)cc1)C(=O)CCCCn1cc(COc2cccc(Cc3cnc(NC(=O)CSc4nc(C)cc(C)n4)s3)c2)nn1
IC50 (Histone deacetylase 3 [17]): 2500 nM

C[C@H](c1nc2c(cnn2C2CCCC2)c(=O)[nH]1)N1CC(Oc2ncccn2)C1
IC50 [10]: 32 nM

O=C(CCCCCn1c(=O)c(-c2ccc(Cl)cc2Cl)cc2cnc(NC3CC3)nc21)NO
IC50 (Histone deacetylase 8): 190 nM
IC50 (Histone deacetylase 3 [17]): 177 nM
IC50 [25]: 13.6 nM
IC50 (Histone deacetylase 2): 157 nM
IC50 (Histone deacetylase 1): 233 nM
IC50 [4]: 38.2 nM
IC50 [26]: 441 nM
IC50 [27]: 193 nM
